Assay results as given in ChEMBL document CHEMBL5252571, “Substitution to hydrophobic linker and formation of host-guest complex enhanced the effect of synthetic transcription factor made of pyrrole-imidazole polyamide” (Bioorg Med Chem, 2023).
Activity calls are given as the source filed them. No cut-off for these calls is given here.

Experiments:
[1] = tested on: GM15850; test: Induction of FRDA expression in human GM15850 cells derived from Friedreich's ataxia patient assessed as increase in FXN transcription at 100 to 300 nM incubated for 24 hrs by RT-PCR analysis; format: functional, cell-based; details: dose 100-300 nM
[2] = tested on: GM15850; test: Induction of FRDA expression in human GM15850 cells derived from Friedreich's ataxia patient assessed as increase in FXN transcription at >300 nM incubated for 24 hrs by RT-PCR analysis; format: functional, cell-based
[3] = tested on: GM15850; test: Cytotoxicity against human GM15850 cells derived from Friedreich's ataxia patient assessed as decrease in cell viability at >300 nM incubated for 48 hrs by cell count reagent SF based colorimetric assay; format: toxicity; details: gm15850, 48 h, 0.3 µM
[4] = Aqueous solubility of compound incubated for 20 mins by HPLC analysis; format: physicochemical; details: buffer
[5] = tested on: GM15850; test: Protective activity against human GM15850 cells derived from Friedreich's ataxia patient assessed as decrease in cytotoxicity at 1 uM incubated for 48 hrs in presence of 0.2 to 10 mM 2-hydroxypropyl-beta-cyclodextrin adjuvant by cell count reagent SF based colorimetric assay; format: functional
[6] = tested on: GM15850; test: Protective activity against human GM15850 cells derived from Friedreich's ataxia patient assessed as decrease in cytotoxicity at 1 uM incubated for 48 hrs in presence of 1 mM 2-hydroxypropyl-beta-cyclodextrin adjuvant by cell count reagent SF based colorimetric assay; format: functional
[7] = tested on: GM15850; test: Induction of FRDA expression in human GM15850 cells derived from Friedreich's ataxia patient assessed as increase in FXN transcription at 100 to 1000 nM incubated for 24 hrs in presence of 1.0 to 2.5 mM 2-hydroxypropyl-beta-cyclodextrin adjuvant by RT-PCR analysis; format: functional, cell-based; details: dose 100-1000 nM
[8] = tested on: GM15850; test: Induction of FRDA expression in human GM15850 cells derived from Friedreich's ataxia patient assessed as increase in FXN transcription incubated for 24 hrs by RT-PCR analysis; format: functional, cell-based

solubility [4] | Structure (SMILES) | Activity [1] | Activity [2] | Activity [3] | Activity [5] | Activity [6] | Activity [7] | Activity [8]
Soluble | Cc1sc2c(c1C)C(c1ccc(Cl)cc1)=N[C@@H](CC(=O)NCCOCCOCCOCCOCCOCCOCCC(=O)NCCCCCCCNC(=O)CCNC(=O)c1nc(NC(=O)CCNC(=O)c3cc(NC(=O)c4nc(NC(=O)CCNC(=O)c5cc(NC(=O)c6nccn6C)cn5C)cn4C)cn3C)cn1C)c1nnc(C)n1-2 | Active | inactive | Toxic | inactive | Active | inactive | –
– | Cc1sc2c(c1C)C(c1ccc(Cl)cc1)=N[C@@H](CC(=O)NCCOCCOCCOCCOCCOCCOCCC(=O)NCCCN(C)CCCNC(=O)CCNC(=O)c1nc(NC(=O)CCNC(=O)c3cc(NC(=O)c4nc(NC(=O)CCNC(=O)c5cc(NC(=O)c6nc(NC(=O)CCCN(C)C)cn6C)cn5C)cn4C)cn3C)cn1C)c1nnc(C)n1-2 | – | – | – | – | – | – | inactive
– | Cc1sc2c(c1C)C(c1ccc(Cl)cc1)=N[C@@H](CC(=O)NCCOCCOCCOCCOCCOCCOCCC(=O)NCCCCCCCNC(=O)CCNC(=O)c1nc(NC(=O)CCNC(=O)c3cc(NC(=O)c4nc(NC(=O)CCNC(=O)c5cc(NC(=O)c6nc(NC(=O)CCCN(C)C)cn6C)cn5C)cn4C)cn3C)cn1C)c1nnc(C)n1-2 | – | – | – | – | – | – | inactive
Soluble | Cc1sc2c(c1C)C(c1ccc(Cl)cc1)=N[C@@H](CC(=O)NCCOCCOCCOCCOCCOCCOCCC(=O)NCCCN(C)CCCNC(=O)CCNC(=O)c1nc(NC(=O)CCNC(=O)c3cc(NC(=O)c4nc(NC(=O)CCNC(=O)c5cc(NC(=O)c6nccn6C)cn5C)cn4C)cn3C)cn1C)c1nnc(C)n1-2 | Active | – | – | – | – | – | Active
